A melting point compilation (Tetko et al.; mined from patent text by program, amines drawn as free bases though some values may be those of a salt)

melting point | Structure (SMILES)
96 to 97 °C | COc1ccc(-n2nc(C(C)C)cc2-c2ccc(OCCNS(C)(=O)=O)cc2)cn1
162 to 164 °C | N=C(N)c1sccc1-c1ccc(CN2CCSC2)cc1
56 °C | COc1cccc2c(N3CCN(C[C@H]4COc5ccc6nc(C)ccc6c5O4)CC3)coc12
66 to 67 °C | N#CCCNC(=O)c1cccc(-c2cccc3c(F)c(Cc4cccc(C(F)(F)F)c4)sc23)c1
168 to 169 °C | COCCOCCCn1c(C=O)c(Br)c2c3c(c(-c4ccccc4Cl)cc21)C(=O)NC3=O
217 to 218 °C | COc1ccc(C(=O)NN=Cc2ccc3ccccc3n2)cc1
129 to 130 °C | C(=C\c1nc(COc2ccc(CCCn3ccnc3)cc2)cs1)/c1ccccc1
220 to 223 °C | CCn1c(=O)c(-c2cc(C)cc(C)c2)cc2cnc(Nc3ccccc3)nc21
290 to 293 °C | CC(=O)NS(=O)(=O)c1cc(C(=O)O)cc(N)c1Oc1ccccc1
102 to 103 °C | CCCc1c(OCCCCCCc2cccc(OCCCCCO)c2CCC(=O)O)ccc2c1OCCC2=O
267 °C | N#Cc1ccc(C(=O)Nc2cccc(C(=O)O)c2)cc1
175 to 178 °C | CN1CCN(C(=O)c2ccccc2)C1=C(Sc1ccccc1)[N+](=O)[O-]
253 °C | Nc1ccc(Nc2c(NCC3CCCO3)cc(C(=O)O)cc2S(N)(=O)=O)cc1 (stereo not drawn)
124 to 127 °C | COC(=O)c1ccc(OCCCNc2ccc3c(c2)OCO3)cc1
129 to 130 °C | Cn1ccc(C(=O)O)c(OCc2ccccc2)c1=O
124 to 126 °C | COC(=O)c1ccc(-c2ccc(Cl)cc2)nc1
190 to 191 °C | COC(=O)c1cccc(-n2cnc3cc(-c4ccno4)ccc32)c1
175 to 177 °C | COc1ccc2c3ccc(OC)cc3n(CCNC(=O)CS(C)(=O)=O)c2c1
43 to 47 °C | CCCCCCCCOc1ccc(CCC(N)(CO)CCC)cc1 (stereo not drawn)
178 to 180 °C | O=C(O)c1ccccc1-c1nnc(-c2ccccc2)s1
155 to 156 °C | CCN1CC=C(CC(=O)NC2(c3ccc(C(F)(F)F)cc3)C(=O)Nc3cc(Cl)cc(Cl)c32)CC1 (single isomer, unassigned; (+))
189 °C | CCOc1ccc(C2(O)CCN(CC(O)c3ccc(O)c(C)c3)CC2)cn1 (stereo not drawn)
202 to 204 °C | CC(C)(C)C(=O)Oc1nc2c(N)ncnc2n1Cc1ccccc1

melting point | Structure (SMILES)
166 to 167 °C | O=C(O)CCc1cn(Cc2cccc(C(=O)NCCc3ccccn3)c2)nc1-c1ccccc1
118 to 121 °C | Nc1cc(Sc2ccc(Cl)cc2)nc(-c2ccccc2)n1
206 to 210 °C | COC(=O)c1ccc(C=CC(=O)C=Cc2ccc(C(=O)OC)cc2)cc1
110 to 112 °C | c1ccc(CCNc2nccc3ccccc23)cc1
181 °C | CCCCc1c(C(=O)c2ccc(O)cc2)[nH]c2ccc([N+](=O)[O-])cc12
228 to 232 °C | Cc1nn(C)c2ccc(C(=O)O)c(C(=O)O)c12
147 to 150 °C | Cc1ccc(-c2nnc(N3CCC(O)C3)nc2-c2ccc(C)cc2)cc1 (stereo not drawn)
168 to 171 °C | Cn1c(-c2ccc(OC3CCN(C4CCC4)CC3)cc2)nc2ccccc2c1=O
78 to 80 °C | C/C(=C/C(=O)O)c1ccn(-c2c(C)cccc2C)c1
198 to 203 °C | Cn1ccc2cc(N3Cc4c(N)cccc4C3=O)ccc21
150 °C | CSc1nnc(C(N)(c2ccc(Cl)cc2)c2ccc3c(c2)c(-c2cccc(Cl)c2)nc2nnnn23)n1C (stereo not drawn)
136 to 137 °C | O=C1CCC(c2ccc(CCCCN3CCN(c4ccc(F)cc4)CC3)cc2)N1 (stereo not drawn)
202 to 204 °C | CCCCc1nc2cc(F)ccc2n1Cc1ccc(C(=O)O)cc1
85 to 86 °C | CCCCOC(=O)c1ccc(N2CCN(c3ccc(CC(C)O)cc3)CC2)cc1 (stereo not drawn)
56 to 58 °C | CCCCCCCCCCNC(=O)c1cccc(N)c1
205 to 206 °C | CCCCc1ncc(/C=C(\Cc2cccs2)C(=O)O)n1Cc1ccccc1[N+](=O)[O-]
122 to 126 °C | CC1(C)C(=O)C(C)(C)c2cc(CCN3CCN(c4nsc5ccccc45)CC3)ccc21
111 °C | N#Cc1ccc(C(=O)CC2C=COc3ccccc32)cc1 (stereo not drawn)
142 to 144 °C | COCCCC(=O)NNC(=O)N1Cc2ccccc2Oc2ccc(Cl)cc21
125 °C | CCOC(=O)N(C)C1CCN(c2nc3ccccc3n2Cc2ccc(F)cc2)CC1
187 to 189 °C | CON(C)Cc1nc2c(N)nc3cc(-c4cccnc4)cnc3c2n1CC(C)(C)O
124 to 125 °C | CC(=O)Oc1ccc(/C=C/c2cccc(OC(C)=O)c2)cc1

Further lines, the compound ahead of its results:

Structure (SMILES) | melting point
COCOc1c(NC(=O)Nc2ccccc2)cc(OC)cc1C(C)(C)C | 121 to 123 °C
CC(C)(C)OC(=O)NCC1(CC(=O)O)CCCCC1 | 109 to 111 °C
CSC(C(=O)O)c1cc(=O)oc2cc(O)c(O)cc12 (stereo not drawn) | 254 to 256 °C
COc1ccc(C(O)c2cccnc2)cn1 (stereo not drawn) | 129 to 130 °C
C=CCOc1ccc2c(=O)c3ccccc3oc2c1C(=O)C=Cc1ccccc1 | 150 to 152 °C
CN1CCN(CC(=O)NN)CC1 | 87 to 89 °C
COc1cccc(-c2ccc3[nH]c4c(ccc5cc[nH]c54)c3c2)c1 | 202 to 205 °C
Brc1ccc2c(c1)N=C(NCc1cccnc1)c1ccccc1N2 | 152 to 155 °C
CCC(NC(=O)NS(=O)(=O)C=Cc1ccccc1)C(=O)O (stereo not drawn) | 150 to 152 °C
Cc1noc([C@@]2(C)CC[C@@H](NCC(=O)N3C[C@@H](F)C[C@H]3C#N)C2(C)C)n1 | 137 to 141 °C
CCc1nc(NCC(C)O)c2c(n1)c(C)nn2C (stereo not drawn) | 116 to 119 °C
CCC(C)c1ccc(OC(C)=O)c(C2(OC(C)=O)C(=O)c3ccccc3C2=O)c1 (stereo not drawn) | 118 to 120 °C
O=C1CCN(C2(OCCOc3ccccc3)OCCO2)CC1 | 105 to 106 °C
COc1cc2c(cc1OC)C(c1cccc(C(F)(F)F)c1)=NN=C(C)C2 | 134 to 135 °C
CC(C)Oc1cc(-n2c(Cl)nc(C(F)(F)C(F)(F)F)cc2=O)c(F)cc1Cl | 55 to 58 °C
CC(C)c1ccc(NN)c(Cl)c1 | 64 to 66 °C
CCOC(=O)NC(=NC(=O)c1nc(Cl)c(N)nc1N)NC(=O)OCC | 213 °C
CCOC(=O)C(=CC=C(C)C=CC=C(C)C=CC1=C(C)CCCC1(C)C)CC | 164 to 165 °C
COc1c(Cl)cc(F)cc1C1OC(=O)NC1=O (stereo not drawn) | 177 to 179 °C
O=CCN1C=C(C(=O)O)Cc2cc(F)c(F)c(F)c21 | 220 to 222 °C

Structure (SMILES) | melting point
C#CCN(c1ccc(C(=O)NC(CCC(=O)NC(CCC(=O)O)C(=O)O)C(=O)O)cc1)C1CCc2cc3nc(CO)[nH]c(=O)c3cc21 (stereo not drawn) | 172 °C
CCOCc1nc2c(N)nc3cc(Br)ccc3c2n1CC1COC(C)(C)O1 (stereo not drawn) | 176 to 177 °C
Nc1nc(-c2cc(Cl)ccc2Cl)nc(N2CCC(=O)CC2)n1 | 223 to 225 °C
C#CCN1C(=O)C2CC3CC(C2)CC1C3 | 168 to 170 °C
CCOC(=O)C1CCNC1=O (stereo not drawn) | 74.5 to 75.5 °C
C=CCc1cc2c(c(CC=C)c1O)N(CC=C(C)C)C(=O)CC2 | 94 to 96 °C
CS(=O)(=O)c1cc(N)ccc1OC(F)(F)F | 106 to 109 °C
C#CCN1CC[C@H](O[Si](C)(C)C(C)(C)C)C1=O | 35 to 36 °C
N#C[C@H](O)c1cccc(Oc2ccccc2)n1 | 95 °C
Cc1nnc2n1-c1ccccc1C(c1ccc(Cl)cc1)=NC2NN(C(=O)NN)C(=O)c1ccccc1 (stereo not drawn) | 243 to 245 °C
c1ccc(C(OC2CCN(CCCNc3ccc4nncn4n3)CC2)c2ccccc2)cc1 | 167 to 168 °C
Cc1nccnc1NCCN1CCC(NC(=O)c2cc(Cl)c(N)c3c2OC(C)(C)C3)CC1 | 163 °C
CC(C)C1SCC(=O)CC1=O (stereo not drawn) | 71 °C
COc1cc(OC)n2nc(S(=O)(=O)Nc3c(Cl)cccc3Cl)nc2c1 | 252 to 253 °C
N#CCCN1CC(=O)N(CCC#N)CC1=O | 166 °C
CC(=O)NC[C@H]1CN(c2ccc(N3CCC(n4cccc4)CC3)c(F)c2)C(=O)O1 | 208 to 210 °C
CCOC(=O)C(=O)Nc1ccc(NS(C)(=O)=O)cc1 | 136 to 139 °C
O=Cc1ccc(OC(F)F)c2oc3ccc([N+](=O)[O-])cc3c12 | 245 to 248 °C
O=C1CC2OC(CS(=O)Cc3ccccc3)CN12 (racemic) | 80.5 to 94.5 °C
N#Cc1cn2c(nc1=O)CCCCC2 | 205 to 206 °C

Structure (SMILES) | melting point
C=C(C#N)S(=O)(=O)c1ccc(OC(F)(F)C(Cl)Cl)cc1 | 89 to 90 °C
Cn1nc2c(oc3ccccc32)c1NCC(F)(F)F | 120 to 121 °C
CC(=O)NCCCCCNc1ccc(NCCN(C)C)c2c1C(=O)c1ccccc1C2=O | 138 to 139 °C
CCC(=O)C1C(=O)CC(c2ccccc2Cl)CC1=O (stereo not drawn) | 63 to 64 °C
O=C1N(C2CCCCC2)CC(CN2CCC(O)(c3ccccc3)CC2)C1(c1ccccc1)c1ccccc1 (stereo not drawn) | 179 to 184 °C
O=C(CBr)Nc1ccccc1C(=O)O | 165 to 168 °C
Clc1cccc2cnsc12 | 50 to 51 °C
Cc1cc(C)c(NS(=O)(=O)c2cc(S(=O)(=O)Nc3c(C)cc(C)cc3C)c3cc(O)ccc3c2)c(C)c1 | 148 to 150 °C
CCC(O)(CC)[C@H](C[C@H](O)[C@H](CC1CCCCC1)NC(=O)OC(C)(C)C)C(=O)NC | 152 to 155 °C
O=C1OC(=O)c2c(C(F)(F)F)c3ccccc3c3cccc1c23 | 235 to 237 °C
COC(=O)c1ccc(Cl)cc1OS(C)(=O)=O | 82.5 to 84.5 °C
Cc1nn(-c2ccc(Cl)cc2)c(C)c1NC(N)=S | 244 to 246 °C
C#CCOCCOC(=O)COc1ccc(Cl)c2cccnc12 | 53 °C
CCc1ccc2c3c(ccc2n1)OCC(CN1CC=C(c2c[nH]c4ccccc24)CC1)O3 (stereo not drawn) | 190 °C
O=Nc1c(-c2ccccc2)nc2ccccn12 | 165 to 167 °C
O=c1ccc(-c2ccc([N+](=O)[O-])c(C(F)(F)F)c2)n[nH]1 | 238 to 241 °C
NCCCCCCNc1nsc2nccn12 | 81 to 82 °C
N#Cc1cccc(C2=Nc3cc(O)c(-c4ccccc4F)cc3NC(=O)C2)c1 | > 250 °C
